For 15 compounds, IC50 results are on record in patent US9845322B2 (Hoffmann-La Roche Inc., priority 2016, dated 2017).

Like-named read-outs stand apart in the source and are kept apart here.

In assay [1] the test system is HBsAg secretion in HepG2.2.15 cells. In words: HBsAg assay (chemiluminescence immunoassay of secreted HBsAg in culture supernatant). Type of assay: cell-based, HBV. As to conditions: concentration at which HBsAg secretion was reduced by 50% compared to the no drug control, read-out: IC50 (HBsAg assay). The method in brief:
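IC50 taken from dose-response curves as the concentration halving secreted HBsAg relative to DMSO control. Measured by chemiluminescence immunoassay of culture supernatant from constitutively HBV-expressing HepG2.2.15 cells, seeded at 1.5×10^4/well in duplicate and exposed to three-fold serial compound dilutions at 1% final DMSO.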

For assay [2], the system named is HBV DNA production in HepG2.2.15 cells. In words: HBV DNA assay (real-time qPCR/TaqMan of extracellular HBV DNA in cell supernatant). Type of assay: cell-based. As to conditions: Hepatitis B virus, 144 h, extracellular HBV DNA copy number, six days after initial administration, read-out: IC50 (Anti HBV DNA production activity). The method, then: HepG2.2.15 cells (Acs et al. Proc Natl Acad Sci USA, 84, (1987), 4641-4), a constitutively HBV-expressing cell line were cultured in DMEM+Glutamax-I medium (Invitrogen, Carlsbad, Calif., USA), supplemented with 10% fetal bovine serum (Invitrogen) and G418 (Invitrogen) at a final concentration of 200 mg/L and maintained in 5% CO2 at 37° C.
The assay employs real-time qPCR (TaqMan) to directly measure extracellular HBV DNA copy number in the cell supernatant. HepG2.2.15 cells were plated in 96-well microtiter plates before treatment with complete medium (DMEM, Glutamax, 10% FBS, 1% Penicillin/Streptomycin, 250 μg/mL Genetycin, final DMSO concentration is 1%). Only the interior wells were utilized to reduce “edge effects” observed during cell culture, the exterior wells were filled with complete medium to help minimize sample evaporation. The HepG2.2.15 cells were treated 1 h later with various concentrations of a test compound in duplicate (top concentration used at 5 μM, 2 μM or 0.5 μM according to the HBsAg IC50 observed, with ⅓ successive dilutions (total of 10 dilutions). Six days following the initial administration of the test compound, the cell culture supernatant was collected; DNA extraction was performed by automated system (Magnapure) and then used in a real-time qPCR/TaqMan assay to determine HBV DNA copy numbers. Antiviral activity was calculated from the reduction in HBV DNA levels (IC50). The compounds of the present invention were tested for their capacity to inhibit HBV DNA as described herein.
In general terms: In qPCR the cycle at which signal appears reflects the starting amount.

The mark [3] stands for this setting: Hepatitis B virus, HepG2.2.15, HepG2.2.15 cells.

Usually IC50 stands for the concentration that inhibits the measured activity by half. `CC1c2cnc(-c3ncccn3)nc2CCN1c1cc(N(C)C)cc(F)n1` (single isomer, unassigned; (-)) [Example 207, (−)-2-fluoro-N,N-dimethyl-6-[5-methyl-2-pyrimidin-2-yl-7,8-dihydro-5H-pyrido[4,3-d]pyrimidin-6-yl]pyridin-4-amine]: the IC50 in assay [1] (HepG2.2.15 cells) came to 2 nM; in assay [2], 0.34 nM.

For the compound `CC1c2cnc(-c3ncccn3)nc2CCN1c1cc(OCC(F)F)cc(F)n1` (stereo not shown) [Example 149, 6-[4-(2,2-difluoroethoxy)-6-fluoro-2-pyridyl]-5-methyl-2-pyrimidin-2-yl-7,8-dihydro-5H-pyrido[4,3-d]pyrimidine], the 50% inhibitory concentration (IC50) in assay [1] (setting [3]) turned out to be 10 nM; in assay [2], 1 nM.

With `CC1c2cnc(-c3ncccn3)nc2CCN1c1cc(F)cc(N2CCNC(=O)C2)n1` (stereo not shown) [Example 214, 4-[4-fluoro-6-(5-methyl-2-pyrimidin-2-yl-7,8-dihydro-5H-pyrido[4,3-d]pyrimidin-6-yl)-2-pyridyl]piperazin-2-one], the IC50 in assay [1] (setting [3]) was 22 nM; in assay [2], 7.2 nM.

On to `CC1c2cnc(-c3ncccn3)nc2CCN1c1cc(N2CCNC(=O)C2)cc(F)n1` (stereo not shown) [Example 215, 4-[2-fluoro-6-(5-methyl-2-pyrimidin-2-yl-7,8-dihydro-5H-pyrido[4,3-d]pyrimidin-6-yl)-4-pyridyl]piperazin-2-one], for which the half-maximal inhibitory concentration (IC50) in assay [1] (setting [3]) amounted to 64 nM; in assay [2], 0.81 nM.

Consider `CC1c2cnc(-c3ncccn3)nc2CCN1c1cc(OCCCCCC(N)=O)cc(F)n1` (single isomer, unassigned; (-)) [Example 165, (−)-6-[[2-fluoro-6-[5-methyl-2-pyrimidin-2-yl-7,8-dihydro-5H-pyrido[4,3-d]pyrimidin-6-yl]-4-pyridyl]oxy]hexanamide], for which the results for the IC50 in assay [1] (setting [3]) and in assay [2] were 13 nM and less than 1 nM, respectively.

For `COc1cc(F)cc(N2CCc3nc(-c4ncccn4)ncc3C2C)c1` (single isomer, unassigned; (-)) [Example 73, (−)-6-(3-fluoro-5-methoxy-phenyl)-5-methyl-2-pyrimidin-2-yl-7,8-dihydro-5H-pyrido[4,3-d]pyrimidine], the IC50 was 18 nM in assay [1] (HepG2.2.15 cells) and 5 nM in assay [2].

Take `CC1c2cnc(-c3ncccn3)nc2CCN1c1cc(N2CCCC2)cc(F)n1` (single isomer, unassigned; (-)) [Example 200, (−)-6-(6-fluoro-4-pyrrolidin-1-yl-2-pyridyl)-5-methyl-2-pyrimidin-2-yl-7,8-dihydro-5H-pyrido[4,3-d]pyrimidine]: the IC50 in assay [1] (HepG2.2.15 cells) is 2 nM; in assay [2] it was less than 1 nM.

Turning to `COc1cc(N2CCc3nc(-c4ncccn4)ncc3C2C)cc(Cl)c1F` (single isomer, unassigned; (-)) [Example 43, (−)-6-(3-chloro-4-fluoro-5-methoxy-phenyl)-5-methyl-2-pyrimidin-2-yl-7,8-dihydro-5H-pyrido[4,3-d]pyrimidine], the IC50 in assay [1] (HepG2.2.15 cells) was 18 nM; in assay [2] it was 8 nM.

As for `CC1c2cnc(-c3ncccn3)nc2CCN1c1cc(F)c(F)c(OCCCCC(N)=O)c1` (stereo not shown) [Example 64, 5-[2,3-difluoro-5-(5-methyl-2-pyrimidin-2-yl-7,8-dihydro-5H-pyrido[4,3-d]pyrimidin-6-yl)phenoxy]pentanamide], the concentration for half-maximal inhibition (IC50) was determined as 62 nM in assay [1] (setting [3]) and 4 nM in assay [2].

With `COc1cc(N2CCc3nc(-c4ncccn4)ncc3C2C)cc(F)c1F` (single isomer, unassigned; (-)) [Example 17, (−)-6-(3,4-difluoro-5-methoxy-phenyl)-5-methyl-2-pyrimidin-2-yl-7,8-dihydro-5H-pyrido[4,3-d]pyrimidine], the IC50 in assay [1] (HepG2.2.15 cells) is 8 nM; in assay [2] it was 2 nM.

Regarding `CC1c2cnc(-c3ncccn3)nc2CCN1c1cc(F)c(F)c(OCCCCCCC(=O)O)c1` (stereo not shown) [Example 86, 7-[2,3-difluoro-5-(5-methyl-2-pyrimidin-2-yl-7,8-dihydro-5H-pyrido[4,3-d]pyrimidin-6-yl)phenoxy]heptanoic acid], the IC50 amounted to 100 nM in assay [1] (setting [3]) and 1 nM in assay [2].

On to `COCCCNC(=O)c1cc(F)cc(N2CCc3nc(-c4ncccn4)ncc3C2C)c1` (stereo not shown) [Example 177, 3-fluoro-N-(3-methoxypropyl)-5-(5-methyl-2-pyrimidin-2-yl-7,8-dihydro-5H-pyrido[4,3-d]pyrimidin-6-yl)benzamide], for which the 50% inhibitory concentration (IC50) in assay [1] (setting [3]) came out at 290 nM.

`CNc1cc(F)nc(N2CCc3nc(-c4ncccn4)ncc3C2C)c1` (single isomer, unassigned; (-)) [Example 203, (−)-2-fluoro-N-methyl-6-[5-methyl-2-pyrimidin-2-yl-7,8-dihydro-5H-pyrido[4,3-d]pyrimidin-6-yl]pyridin-4-amine]: the IC50 was 6 nM in assay [1] (setting [3]) and 0.16 nM in assay [2].

As for `CC1c2cnc(-c3ncccn3)nc2CCN1c1cc(F)c(F)c(OCCCCCCC(N)=O)c1` (stereo not shown) [Example 87, 7-[2,3-difluoro-5-(5-methyl-2-pyrimidin-2-yl-7,8-dihydro-5H-pyrido[4,3-d]pyrimidin-6-yl)phenoxy]heptanamide], the IC50 turned out to be 73 nM in assay [1] (setting [3]) and 10 nM in assay [2].

As for `COc1cc(N2CCc3nc(-c4ncccn4)ncc3C2C)cc(F)c1Cl` (stereo not shown) [Example 40, 6-(4-chloro-3-fluoro-5-methoxy-phenyl)-5-methyl-2-pyrimidin-2-yl-7,8-dihydro-5H-pyrido[4,3-d]pyrimidine], in assay [1] (setting [3]), the IC50 amounted to 4860 nM.
